Reference: patent EP3074024B1, “ANTIMICROBIAL COMPOSITIONS FOR USE IN PRODUCTS FOR PETROLEUM EXTRACTION, PERSONAL CARE, WOUND CARE AND OTHER APPLICATIONS” (Agienic Inc., priority 2013, dated 2015)

Key:
[1] = room temperature; cited from earlier work
[2] = test system: Desulfovibrio vulgaris (ATCC 29579); assay: Activity against sulfate reducing bacteria (3-tube MPN); type: cell-based; conditions: 10ppm; one hour of contact time; starting 2x10^7 mpn/ml; SRB2 media
Method: D. vulgaris was cultured for 2 days prior to experiment in SRB 2 media (Intertek). From this culture, 2 ml of inoculum was added to 18 ml anaerobic phosphate buffered saline (PBS).
Each concentration was tested in duplicate. […] The sealed bottles were incubated at room temperature (23°C) without agitation.
An initial sample was taken from the positive control to establish a starting concentration of bacteria for the experiment. 0.5 ml samples were taken at 1 hour time point and diluted in 4.5 ml anaerobic Dey/Engely (D/E) neutralizing broth to neutralize the Cu bacteriocide. A 1:10 dilution series was made using anaerobic PBS. Bacterial numbers were quantified by a 3-tube most probable number (MPN) method. Three tubes of anaerobic modified Baar's media (10 ml each) per dilution were inoculated with 1 ml each from their respective diluted sample. These tubes were incubated at 37°C for 72 hours. Positive samples were evaluated based on the presence of iron sulfide (FeS), which forms a black precipitate as a byproduct of hydrogen sulfide produced by bacterial growth reacting with iron included in the modified Baar's media.
All test media (PBS, D/E and modified Baar's media) were pretreated with 100 µl Oxyrase oxygen scavengers (obtained from Oxyrase Inc, Mansfield, OH) to render the test media anaerobic. […]

SMILES | Water solubility [1] | log10 reduction [2]
[Cu][Br] [CuBr, Copper bromide] | 11 µg/mL | –
[Cl][Cu][Cl] [CuCl2, copper (II) chloride] | – | less than 3 log10
O=CCCCC=O [gluteraldehyde] | – | greater than 4.23 log10
